Test system: HT29 human colon tumour cells
Experiment: Cell proliferation assay
Type: cell-based
Conditions: HT-29, 72 hours incubation
Procedure: Cell Proliferation Assays
Cells were seeded into multi-well plates at 20 000-40 000 cells/ml in growth medium containing 5% FCS and incubated overnight at 37° C. The compounds were prepared in fresh medium at an appropriate concentration and added to the wells containing the cells. These were then incubated for a further 72 hours. Cells were then either removed from the wells by incubating with trypsin/EDTA and counted using a Coulter counter, or treated with XTT/PMS in PBSA and optical densities read at 450 nm. […] For example, Compound No 3 gave an IC50 of 1.0 μM in HT29 human colon tumour cells.

An IC50 of 1000 nM was found for COc1cc2ncc(C#N)c(Nc3ccc(Oc4ccccc4OCC(=O)NCC(=O)N4CCN(C)CC4)cc3)c2cc1OC [Compound 3] in this work.
